Laboratory results reported in patent publication US20250313820A1, “PEPTIDES WITH MULTIVALENT EFFECTS” (In2Cure AB, priority 2021, published 2025).
Read-outs that look alike come from different tables or passages of the source.

Key:
[1] = test system: erythrocytes (RBCs); type: cell-based, human
Protocol: (§1) Fresh venous blood from healthy donors was collected in lepirudine tubes (50 μg mL-1). Then 50 μL of blood were transferred to round-bottom 96-wells plate containing 150 μL of peptides previously diluted in RPMI-1640—GlutaMAX-I without phenol red (Gibco). 1:4 diluted blood was used as control. 50 μL of blood mixed with 150 μl 5% Tween-20 were used as positive control. After 1 h incubation at 37° C. and 5% CO2, the plate was centrifuged at 800 g, 150 μL of each sample were transferred to a flat-bottom 96-wells plate and the absorbance at 450 nm was measured. The percentage of hemolysis was calculated following the formula reported below: […]
To evaluate the hemolytic effect of the peptides on erythrocytes the blood was collected as reported above and centrifuged at 250 g for 10 min. Then plasma was discarded, and red blood cells were washed with 150 mM NaCl in 10 mM Tris pH 7.4 for three times. Next, the pellet was dilute 100 times with saline Tris buffer. 100 μL of this solution were added to round-bottom 96-wells plate containing 100 μL of peptides previously diluted in saline Tris buffer. After 1 h incubation at 37° C. and 5% CO2, the plate was centrifuged and the absorbance at 450 nm was measured, then the percentage of erythrocyte lysis was determined using formula reported above.
(§2) Data shown are mean values±SEM obtained from at least four independent experiments all made in triplicate. For each experiment blood from a different donor was used.

[2] = target: T1, human neutrophil elastase (HNE) (Homo sapiens, UniProt P08246); type: in vitro ADME
T1 construct: purchased Calbiochem, Merk KGaA, Darmstadt, Germany
T1 sequence (P08246 30-267): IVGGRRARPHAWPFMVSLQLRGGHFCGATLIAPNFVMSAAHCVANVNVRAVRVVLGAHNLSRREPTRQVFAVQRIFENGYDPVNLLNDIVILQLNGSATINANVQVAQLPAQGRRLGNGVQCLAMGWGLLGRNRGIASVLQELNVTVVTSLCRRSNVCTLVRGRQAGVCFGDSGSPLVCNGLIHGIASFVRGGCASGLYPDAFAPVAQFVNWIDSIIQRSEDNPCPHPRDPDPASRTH
Protocol: (§7) Peptides were resuspended in endotoxin free water at concentration of 1 mM. […] All digestions were performed in three independent experiments.

[3] = target: T2, trypsin (Sus scrofa, UniProt P00761); type: in vitro ADME
T2 construct: purchased Promega, Madison, WI, USA
T2 sequence (P00761 9-231): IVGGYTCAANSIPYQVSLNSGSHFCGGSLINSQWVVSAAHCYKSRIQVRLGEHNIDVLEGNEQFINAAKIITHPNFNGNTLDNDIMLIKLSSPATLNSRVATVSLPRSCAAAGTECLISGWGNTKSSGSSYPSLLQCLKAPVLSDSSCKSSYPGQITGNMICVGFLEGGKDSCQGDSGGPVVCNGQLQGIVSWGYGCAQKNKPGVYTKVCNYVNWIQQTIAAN
Protocol: as §7

[4] = test system: proteases (HNE, PE, V8, trypsin); assay: Proteolysis in vitro, fragments by LC-MS/MS
Protocol: as §7

[5] = test system: whole blood; type: cell-based, human
Protocol: as §1, §2

[6] = target: T3, P. aeruginosa elastase (PE) (Pseudomonas aeruginosa, UniProt P14756); type: in vitro ADME; conditions: SDS-PAGE, digestion 0-18 h
T3 construct: purchased Calbiochem, Merk KGaA, Darmstadt, Germany
T3 sequence (P14756 198-498): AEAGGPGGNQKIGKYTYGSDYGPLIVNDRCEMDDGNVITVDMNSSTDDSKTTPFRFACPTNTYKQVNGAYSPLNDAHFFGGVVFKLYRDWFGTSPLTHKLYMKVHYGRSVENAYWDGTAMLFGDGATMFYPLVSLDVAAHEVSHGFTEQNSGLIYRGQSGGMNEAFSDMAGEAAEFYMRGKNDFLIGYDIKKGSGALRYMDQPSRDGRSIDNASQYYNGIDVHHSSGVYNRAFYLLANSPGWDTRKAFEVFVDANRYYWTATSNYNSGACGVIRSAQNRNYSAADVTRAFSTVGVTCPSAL
Protocol: All digestions were performed in three independent experiments.
Two μg of the peptide from each condition were loaded on 10-20% Novex Tricine pre-cast gel from Invitrogen (USA). The run was performed at 100 V for 100 min. The gel was stained by using Coomassie Brilliant blue (Invitrogen, USA). The image has been acquired with a Gel Doc Imager (Bio-Rad Laboratories, USA). Samples from three independent digestions were analysed.

[7] = test system: release of TNF-α in LPS stimulated blood; assay: Whole blood assay with cytokine ELISA: TNF-α; type: cell-based; conditions: 25% human blood, 100 ng mL^−1 E. coli LPS, 24 h; read-out: Anti-inflammatory activity: Peptide concentration that reduces by 50% the release of TNF-α in LPS stimulated blood
Protocol: (§3) Fresh venous blood was collected in the presence of lepirudin (50 μg mL^−1) from healthy donors. […] After 24 h incubation at 37° C. in 5% CO2, the plate was centrifuged for 5 min at 1000 g and then the supernatants were collected and stored at −80° C. before analysis. The experiment was performed at least 4 times by using blood from different donors each time. To evaluate the healing properties of the peptides, the blood was stimulated with 100 ng mL^−1 LPS and after 30 min incubation at 37° C. was treated with increasing doses of four peptides. […] Then the blood was stimulated with 100 ng mL^−1 of LPS.
(§4) Plasma obtained from blood experiment was used to evaluate cytokine release. Human inflammation DuoSet® ELISA Kit (R&D Systems) specific for TNF-α and IL-1β was used according to the manufacturer's instructions. Absorbance was measured at a wavelength of 450 nm. Data shown are mean values±SEM obtained from at least four independent experiments all performed in duplicate.
(§5) For each experiment blood from a different donor was used.
(§6) Plasma obtained from blood experiments was used to evaluate cytokine release. […] Absorbance was measured at a wavelength of 450 nm. […]
as §6

[8] = test system: cytokines released from human blood stimulated with E. coli LPS; assay: Whole blood assay, cytokines overall (TNF-α and IL-1β); type: cell-based; conditions: 25% blood, 100 ng mL^−1 LPS, peptide added before or together with LPS, 24 h
Protocol: as §3, §4, §5, §6, §6

CC[C@H](C)[C@H](NC(=O)[C@H](Cc1c[nH]c2ccccc12)NC(=O)[C@H](CCCCN)NC(=O)[C@H](CCCCN)NC(=O)[C@H](CC(C)C)NC(=O)[C@H](CCCNC(=N)N)NC(=O)[C@H](Cc1ccccc1)NC(=O)[C@@H](NC(=O)[C@@H](N)Cc1c[nH]cn1)C(C)C)C(=O)N[C@@]1(C)CCCC=CCCC[C@@](C)(C(=O)N[C@@H](CCC(N)=O)C(=O)N[C@@H](Cc2ccccc2)C(=O)NCC(=O)N[C@@H](CCC(=O)O)C(=O)O)NC(=O)[C@H]([C@@H](C)CC)NC(=O)[C@H](C(C)C)NC(=O)[C@H](CCCCN)NC1=O [sHVF18, HVFRLKKWIXKVIXQFGE]
hemolytic activity, RBCs or whole blood (heatmaps FIG. 4, FIG. 20a), in words [1]: lower hemolytic activity if compared with sGKY25
Hemolytic activity, lysed RBCs ([1]; 1 h): 35.4 ± 5.9%
stability in the presence of HNE enhanced up to (time) [2]: up to 18 h
intact peptide still detected after trypsin digestion (time) [3]: ≥ 18 h
protection to proteolysis / fragments released (LC-MS/MS) [4]: complete protection to proteolysis
hemolytic activity in whole blood, in words [5]: significantly lower hemolytic activity
Hemolytic activity, lysed RBCs in whole blood ([5]; 1 h): <1%
stability in the presence of PE enhanced up to (time) [6]: up to 18 h

cyclo[GKYGE]YTHVFRLKKWIXKVIXQFGE [2sGKY25]
Hemolytic activity, lysed RBCs [1]: 49.1 ± 13.6%
Hemolytic activity, lysed RBCs in whole blood [5]: <1%
hemolytic activity in whole blood, in words [5]: slightly lower than for sGKY25, but definitely higher than for sHVF18
IC50 [7]: 8 ± 2.3 µM
anti-inflammatory activity in LPS-stimulated blood (TNF-α and IL-1β release), in words [8]: better suppression of LPS-induced TNF-α and IL-1β release than GKY25
